Experimental findings from patent US20260364184A1, “COMPOUND BASED ON OXOISOINDOLINYL-SUBSTITUTED TETRAHYDROPYRIMIDINE-DIONE AND USE THEREOF” (GLUETACS THERAPEUTICS (SHANGHAI) CO., LTD., priority 2023, published 2026) are described below.

What all share (type): cell-based
One assay concerns the target T1, CDK4 (Homo sapiens, UniProt P11802+Q96SW2).
T1 construct: expression of target proteins in cells; endogenous in cells
Nature of the assay: Western blot degradation of CDK4. The following applies: MDA-MB-231 Cell; 24 hours. The protocol: (§1) Conventional Western blot assay was performed to evaluate the effects of the compounds of the present disclosure on the expression of target proteins in cells.
(§2) (1) Cell Seeding and Protein Harvesting: The selected cells were processed according to the cell seeding procedure and protein harvesting procedure in Table II-2.
(§3) (2) To the collected supernatant, 5×SDS sample loading buffer was added, followed by denaturation at 95 °C for 5 minutes. The denatured samples were then separated by SDS-PAGE electrophoresis on a polyacrylamide gel. Proteins were transferred to a nitrocellulose membrane (0.45 μm NC membrane), blocked with blocking buffer at room temperature for 1 hour, and subjected to antibody incubation and development procedures according to the antibody manufacturer's instructions (Cell Signaling Technology).
(§4) Half-Maximal Degradation Concentration value (the drug concentration required for degrading proteins by 50%, abbreviated as DC50) reads method: comparing the grayscale values of Western blot bands from drug-treated samples with those from blank DMSO-treated controls, and identifying the drug concentration range at which the grayscale value is half that of the DMSO-treated control bands.
(§5) DC50 values can be calculated using ImageJ software to measure grayscale values of Western blot bands from drug-treated samples. The concentration-response curve is fitted to estimate the drug concentration corresponding to half the grayscale value.
(§6) Target protein remaining (%) refers to the percentage of target protein remaining in cells after treatment with protein degrader compounds.
(§7) Calculation method for target protein remaining (%): Use ImageJ software to measure grayscale values of Western blot bands from drug (protein degrader)-treated samples. The grayscale value of drug-treated bands is divided by that of internal control protein bands, and the resulting quotient is normalized to obtain the relative percentage of remaining target protein after protein degrader treatment.
(§8) Target protein degradation rate (%)=1−target protein remaining (%).
On the technique in general: A western blot detects proteins with antibodies after separation by electrophoresis.

Another assay concerns the target T2, CDK6 (Homo sapiens, UniProt Q00534+Q96SW2).
T2 construct: expression of target proteins in cells; endogenous in cells
In words: Western blot degradation of CDK6. To be noted: MDA-MB-231 Cell; 24 hours. The protocol: as §1, §2, §3, §4, §5, §6, §7, §8

Assay [1] deals with Human lung cancer cell line (H292). Nature of the assay: Inhibition of H292 cell proliferation (CellTiter luminescent viability). The following applies: NCI-H292, Table IM1, CDK9 inhibitor-based, 96 hours; for inhibition at 0.01 µM: H292, 10 nM, read-out: Inhibition Rate at 10 nM (%); for inhibition at 0.5 µM: H292, 500 nM, read-out: Inhibition Rate at 500 nM (%). As to the method: The tumor cells used herein were cultured in a cell culture medium listed in table 3 at 37 °C in an incubator with 5% CO2. Prior to experimentation, all cell lines used were correctly identified by STR profiling, and tested negative for mycoplasma contamination using a mycoplasma detection kit through routine screenings.
The IC50 values of the compounds of the present disclosure (including the compounds in Table 1, Table 2, and Examples 1-468) were determined using the CellTiter-Meiluncell Luminescent Cell Viability Assay Kit from Dalian Meilun Biotech Co., Ltd. The detailed procedure is as follows: Tumor cells were seeded in 96-well cell culture plates at the densities specified in Table 4. On the following day, the test compounds of the present disclosure were subjected to serial dilution. The dilution can be performed according to one of the following two methods: • (1) The first dilution method: The test compounds of the present disclosure (including the compounds in Table 1, Table 2, and Examples 1-468) were subjected to 5-fold serial dilutions starting from a highest concentration of 2000 μM, resulting in a total of 9 concentrations from high to low (2000, 400, 80, 16, 3.2, 0.64, 0.128, 0.0256, 0.00512 μM). Subsequently, 0.5 μL of the test compound dilution was transferred into the 96-well plate containing the cells, with each well containing 100 μL of cell culture medium. […] Into the 96-well plate, the diluted test compounds and corresponding detection reagents were added, resulting in final test compound concentrations of 500 nM and 10 nM, respectively. The experimental procedure is described below using the diluted 2 μM test compound as an example.
0.5 μL of the aforementioned diluted compound of the present disclosure (including the compounds in Table 1, Table 2, and Examples 1-468) was added to the seeded cells in 100 μL of medium, yielding a final test compound concentration of 10 nM. After the cells were treated with the compounds of the present disclosure for a specified period, the cell viability assay reagent was added to the culture medium according to the kit's instructions to determine cell viability. […] All controls were treated using the same procedure as the compounds of the present disclosure. The growth inhibition curves for the compounds of the present disclosure were plotted using Prism GraphPad software, and the IC50 values were calculated therefrom.

In assay [2] the test system is Human B-Cell Lymphoma Cells (RPMI-8226). Nature of the assay: Inhibition of RPMI-8226 cell proliferation (CellTiter luminescent viability). The following applies: RPMI-8226, 500 nM, read-out: Inhibition Rate at 500 nM (%).
Experiment in assay [3]: as above
The following applies: Homo sapiens; RPMI-8226; 10 nM; read-out: Inhibition Rate at 10 nM (%).

T2 sequence (Q00534 whole entry): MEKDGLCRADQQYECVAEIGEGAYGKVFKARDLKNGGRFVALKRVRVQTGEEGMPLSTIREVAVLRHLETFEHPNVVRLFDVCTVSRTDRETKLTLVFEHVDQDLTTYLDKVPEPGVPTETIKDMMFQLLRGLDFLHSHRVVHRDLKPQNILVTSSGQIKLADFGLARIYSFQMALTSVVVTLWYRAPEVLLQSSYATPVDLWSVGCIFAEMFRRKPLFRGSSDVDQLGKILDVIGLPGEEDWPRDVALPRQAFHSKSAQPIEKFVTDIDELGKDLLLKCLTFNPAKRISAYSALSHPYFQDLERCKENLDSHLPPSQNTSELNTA
T2 sequence (Q96SW2 whole entry): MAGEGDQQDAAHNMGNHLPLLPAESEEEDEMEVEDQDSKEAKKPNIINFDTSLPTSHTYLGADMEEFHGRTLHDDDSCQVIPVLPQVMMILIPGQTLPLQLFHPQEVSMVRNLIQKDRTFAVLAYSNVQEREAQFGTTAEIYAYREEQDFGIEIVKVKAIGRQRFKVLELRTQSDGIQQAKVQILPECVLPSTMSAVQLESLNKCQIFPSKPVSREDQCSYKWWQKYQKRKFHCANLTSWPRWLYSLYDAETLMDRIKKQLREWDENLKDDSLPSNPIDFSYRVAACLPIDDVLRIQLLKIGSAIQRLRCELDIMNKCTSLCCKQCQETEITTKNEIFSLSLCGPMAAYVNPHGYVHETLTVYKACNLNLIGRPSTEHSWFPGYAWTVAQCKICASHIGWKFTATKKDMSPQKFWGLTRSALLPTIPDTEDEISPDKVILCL
T2 sequence (Q16531 whole entry partner): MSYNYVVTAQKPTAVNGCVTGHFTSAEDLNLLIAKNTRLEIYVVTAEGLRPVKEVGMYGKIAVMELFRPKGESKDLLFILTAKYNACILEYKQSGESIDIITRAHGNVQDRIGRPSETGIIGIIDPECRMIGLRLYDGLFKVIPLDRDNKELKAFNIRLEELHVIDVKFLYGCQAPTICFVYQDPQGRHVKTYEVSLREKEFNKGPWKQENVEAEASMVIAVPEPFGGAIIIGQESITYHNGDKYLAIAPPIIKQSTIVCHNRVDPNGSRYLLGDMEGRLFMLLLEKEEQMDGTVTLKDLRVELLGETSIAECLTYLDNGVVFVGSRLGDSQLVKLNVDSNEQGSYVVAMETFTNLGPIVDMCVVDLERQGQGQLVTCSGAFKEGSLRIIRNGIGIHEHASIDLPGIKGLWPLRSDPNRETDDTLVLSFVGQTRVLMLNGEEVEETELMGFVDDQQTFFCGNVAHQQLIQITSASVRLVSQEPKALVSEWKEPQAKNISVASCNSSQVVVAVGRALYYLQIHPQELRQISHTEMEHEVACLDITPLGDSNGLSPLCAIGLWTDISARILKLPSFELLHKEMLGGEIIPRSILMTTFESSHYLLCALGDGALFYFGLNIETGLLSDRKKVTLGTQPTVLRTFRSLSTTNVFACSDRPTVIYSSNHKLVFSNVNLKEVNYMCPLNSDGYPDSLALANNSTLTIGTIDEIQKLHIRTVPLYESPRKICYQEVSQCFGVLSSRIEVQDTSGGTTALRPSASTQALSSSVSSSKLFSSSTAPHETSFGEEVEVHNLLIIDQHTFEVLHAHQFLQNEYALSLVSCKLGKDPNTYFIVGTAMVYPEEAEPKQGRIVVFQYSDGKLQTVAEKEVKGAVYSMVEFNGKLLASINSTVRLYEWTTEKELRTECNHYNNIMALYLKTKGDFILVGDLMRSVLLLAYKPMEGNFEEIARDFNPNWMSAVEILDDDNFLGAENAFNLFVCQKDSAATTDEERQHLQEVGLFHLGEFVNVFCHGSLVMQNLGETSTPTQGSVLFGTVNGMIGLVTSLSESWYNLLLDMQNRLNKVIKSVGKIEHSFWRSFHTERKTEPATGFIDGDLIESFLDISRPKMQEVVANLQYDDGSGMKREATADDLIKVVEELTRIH
T1 sequence (P11802 whole entry): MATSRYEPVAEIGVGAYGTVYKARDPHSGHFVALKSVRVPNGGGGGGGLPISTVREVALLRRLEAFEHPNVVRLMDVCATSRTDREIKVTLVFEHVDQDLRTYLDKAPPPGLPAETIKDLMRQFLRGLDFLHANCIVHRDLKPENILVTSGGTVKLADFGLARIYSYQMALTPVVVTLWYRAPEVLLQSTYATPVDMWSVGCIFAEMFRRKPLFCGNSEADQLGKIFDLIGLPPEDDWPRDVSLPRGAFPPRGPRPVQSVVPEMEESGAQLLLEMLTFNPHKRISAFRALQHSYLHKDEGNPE
T1 sequence (Q96SW2 whole entry): as the sequence (Q96SW2 whole entry) above
T1 sequence (Q16531 whole entry partner): as the sequence (Q16531 whole entry partner) above

In the case of `CN(C)C(=O)c1cc2cnc(Nc3ccc(N4CCC(CN5C6CC5CN(c5ccc7c(c5)C(=O)N(N5CCC(=O)NC5=O)C7=O)C6)CC4)cn3)nc2n1C1CCCC1` [GT-05820, 7-cyclopentyl-2-((5-(4-((3-(2-(2,4-dioxotetrahydropyrimidin-1(2H)-yl)-1,3-dioxoisoindolin-5-yl)-3,6-diazabicyclo[3.1.1]heptan-6-yl)methyl)piperidin-1-yl)pyridin-2-yl)amino)-N,N-dimethyl-7H-pyrrolo[2,3-d]pyrimidine-6-carboxamide], the “Degradation of substrate protein CDK4 (substrate protein remaining %)” value on CDK4 was “B (80%<substrate protein remaining %≤100%)”. The “Degradation of substrate protein CDK6 (substrate protein remaining %)” value at CDK6 was “A (0%≤substrate protein remaining %≤80%)”.
The inhibition is the change of the read-out against control, counted positive when it falls. In the case of `N#CC1(CNc2nc(-c3cc(NC4CCN(CC5CCN(c6ccc7c(c6)C(=O)N(N6CCC(=O)NC6=O)C7=O)CC5)CC4)ncc3Cl)cs2)CCOCC1` [GT-04719, 4-(((4-(5-chloro-2-((1-((1-(2-(2,4-dioxotetrahydropyrimidin-1(2H)-yl)-1,3-dioxoisoindolin-5-yl)piperidin-4-yl)methyl)piperidin-4-yl)amino)pyridin-4-yl)thiazol-2-yl)amino)methyl)tetrahydro-2H-pyran-4-carbonitrile], the values for the inhibition at 0.01 µM in assay [1] and in assay [3] were 5 to 10% and 10 to 20%, respectively. Further, the values for the inhibition at 0.5 µM in assay [1] and in assay [2] were 15 to 20% and 20 to 30%, respectively.
Regarding `CN(C)C(=O)c1cc2cnc(Nc3ccc(N4CCC(CN5CCN(C6CCN(c7ccc8c(c7)C(=O)N(N7CCC(=O)NC7=O)C8=O)CC6(F)F)CC5)CC4)cn3)nc2n1C1CCCC1` (stereo not drawn) [GT-05206, 7-cyclopentyl-2-((5-(4-((4-(1-(2-(2,4-dioxotetrahydropyrimidin-1(2H)-yl)-1,3-dioxoisoindolin-5-yl)-3,3-difluoropiperidin-4-yl)piperazin-1-yl)methyl)piperidin-1-yl)pyridin-2-yl)amino)-N,N-dimethyl-7H-pyrrolo[2,3-d]pyrimidine-6-carboxamide], on CDK4, the “Degradation of substrate protein CDK4 (substrate protein remaining %)” value is given as “B (80%<substrate protein remaining %≤100%)”. Also, at CDK6, the “Degradation of substrate protein CDK6 (substrate protein remaining %)” value was “A (0%≤substrate protein remaining %≤80%)”.
Regarding `Cc1nc2c(F)cc(-c3nc(Nc4ccc(N5CCC(N(C)Cc6ccc7c(c6)C(=O)N(N6CCC(=O)NC6=O)C7=O)CC5)cn4)ncc3F)cc2n1C(C)C` [GT-06732, 2-(2,4-dioxotetrahydropyrimidin-1(2H)-yl)-5-(((1-(6-((5-fluoro-4-(4-fluoro-1-isopropyl-2-methyl-1H-benzo[d]imidazol-6-yl)pyrimidin-2-yl)amino)pyridin-3-yl)piperidin-4-yl)(methyl)amino)methyl)isoindoline-1,3-dione], the “Degradation of substrate protein CDK4 (substrate protein remaining %)” value on CDK4 is listed as “B (80%<substrate protein remaining %≤100%)”. On CDK6, the “Degradation of substrate protein CDK6 (substrate protein remaining %)” value is given as “A (0%≤substrate protein remaining %≤80%)”.
Take `CN(C)C(=O)c1cc2cnc(Nc3ccc(N4CCC(CN5CCN(c6cc(F)c7c(c6)C(=O)N(N6CCC(=O)NC6=O)C7=O)CC5)CC4)cn3)nc2n1C1CCCC1` [GT-05204, 7-cyclopentyl-2-((5-(4-((4-(2-(2,4-dioxotetrahydropyrimidin-1(2H)-yl)-7-fluoro-1,3-dioxoisoindolin-5-yl)piperazin-1-yl)methyl)piperidin-1-yl)pyridin-2-yl)amino)-N,N-dimethyl-7H-pyrrolo[2,3-d]pyrimidine-6-carboxamide]: the “Degradation of substrate protein CDK4 (substrate protein remaining %)” value at CDK4 is given as “B (80%<substrate protein remaining %≤100%)”. On CDK6, the “Degradation of substrate protein CDK6 (substrate protein remaining %)” value is listed as “A (0%≤substrate protein remaining %≤80%)”.
Consider `O=C1CCN(N2C(=O)c3ccc(N4CCC(CN5CCN(c6ccc(CC(=O)Nc7cc(C8CCC8)[nH]n7)cc6)CC5)CC4)cc3C2=O)C(=O)N1` [GT-08350, N-(5-cyclobutyl-1H-pyrazol-3-yl)-2-(4-(4-((1-(2-(2,4-dioxotetrahydropyrimidin-1(2H)-yl)-1,3-dioxoisoindolin-5-yl)piperidin-4-yl)methyl)piperazin-1-yl)phenyl)acetamide], for which the results for the inhibition at 0.01 µM in assay [1] and in assay [3] were 40 to 50% and 10 to 20%, respectively. Further, the inhibition at 0.5 µM in assay [1] was in the range of 40 to 50%; in assay [2], 20 to 30%.
As to `O=C(NC1CCNCC1)c1[nH]ncc1NC(=O)c1c(Cl)cccc1Cl` [AT7519, reference compound], the inhibition at 0.01 µM was -5 to 0% in assay [1] and 0 to 5% in assay [3]. The inhibition at 0.5 µM in assay [1] is 5 to 10%; in assay [2], -20 to -15%.
The corresponding values for `O=C1CCN(N2Cc3cc(CN4CCN(c5ccc(CC(=O)Nc6cc(C7CCC7)[nH]n6)cc5)CC4)ccc3C2=O)C(=O)N1` [GT-08229, N-(5-cyclobutyl-1H-pyrazol-3-yl)-2-(4-(4-((2-(2,4-dioxotetrahydropyrimidin-1(2H)-yl)-1-oxoisoindolin-5-yl)methyl)piperazin-1-yl)phenyl)acetamide] are 20 to 30%, 10 to 20%, 30 to 40% and 10 to 20%.
Taken in the same sequence, the figures for `Cn1ncc(-c2nc(NC3CCN(CC4CCN(c5cccc6c5C(=O)N(N5CCC(=O)NC5=O)C6=O)CC4)CC3)ncc2Cl)c1CC1CC1` [GT-08347, 4-(4-((4-((5-chloro-4-(5-(cyclopropylmethyl)-1-methyl-1H-pyrazol-4-yl)pyrimidin-2-yl)amino)piperidin-1-yl)methyl)piperidin-1-yl)-2-(2,4-dioxotetrahydropyrimidin-1(2H)-yl)isoindoline-1,3-dione] were 5 to 10%, 20 to 30%, 20 to 30% and 10 to 20%.
On to `Cn1ncc(-c2nc(NC3CCN(Cc4ccc5c(c4)CN(N4CCC(=O)NC4=O)C5=O)CC3)ncc2Cl)c1CC1CC1` [GT-08212, 1-(5-((4-((5-chloro-4-(5-(cyclopropylmethyl)-1-methyl-1H-pyrazol-4-yl)pyrimidin-2-yl)amino)piperidin-1-yl)methyl)-1-oxoisoindolin-2-yl)dihydropyrimidine-2,4 (1H,3H)-dione], for which the inhibition at 0.01 µM in assay [1] and in assay [3] was 20 to 30% each time. The inhibition at 0.5 µM in assay [1] was in the range of 30 to 40%; in assay [2], 5 to 10%.
With `N#CC1(CNc2cccc(-c3cc(NC4CCN(Cc5ccc6c(c5)C(=O)N(N5CCC(=O)NC5=O)C6=O)CC4)ncc3Cl)n2)CCOCC1` [GT-08215, 4-(((5′-chloro-2′-((1-((2-(2,4-dioxotetrahydropyrimidin-1(2H)-yl)-1,3-dioxoisoindolin-5-yl)methyl)piperidin-4-yl)amino)-[2,4′-bipyridin]-6-yl)amino)methyl)tetrahydro-2H-pyran-4-carbonitrile], the inhibition at 0.01 µM in assay [1] and in assay [3] was 20 to 30% each time. For the same compound, the inhibition at 0.5 µM in assay [1] and in assay [2] was 20 to 30% each time.
